This is an account of results in paper PMC11595998, “Characterization of a New Hsp110 Inhibitor as a Potential Antifungal” (Journal of Fungi, 2024).

SMILES strings stand for the structures. Numbered stars: 1 amine (or outer) side, 2 acyl side, 3 side chain; on linkers, the order of the positions; unused ones are H or OH. Bridge positions count the residues as written; N and C are the ends. Square brackets hold non-standard residues; d marks the D form. Peptide text beside a SMILES is read from it. * marks the point of attachment. pTerphenylCO(4''-OnC5H11) = CCCCCOc1ccc(-c2ccc(-c3ccc(C(=O)*)cc3)cc2)cc1; Orn(4R-OH,5R-OH) = O=C([C@H](C[C@@H](O)[C@@H](O)N[*:3])N[*:1])[*:2]; hTyr(3S-OH,4S-OH) = N[C@H](C(=O)O)[C@H](O)[C@@H](O)c1ccc(O)cc1; Pro(3S-OH,4S-Me) = C[C@H]1CN[C@H](C(=O)O)[C@H]1O; Hyp = O=C(O)[C@@H]1C[C@@H](O)CN1

Test [1] deals with C. albicans strain SC5314. The test is described as follows: Checkerboard synergy test (FICI) of 2H with common antifungals. The format is cell-based, Candida albicans. As to conditions: combination with 2H; SC5314, YNB medium, 37 °C, 24 h; synergy FICI ≤ 0.5, additive or indifferent > 0.5 and < 2, antagonistic > 2. The method, then: The assay was carried out as published previously. SC5314, the most widely-used wild-type C. albicans strain, was obtained from Dr. Ronda Rolfes (Georgetown University). An aliquot of SC5314 was thawed and grown overnight in Sabouraud medium at 30 °C. After harvesting by centrifugation at 1200× g for 5 min, the cells were washed twice using PBS. Afterward, the inoculum was prepared in the YNB medium, a yeast synthetic medium, with an OD600 of 0.0005 (corresponding to 5 × 10^3–1 × 10^4 colony forming units (CFU)). Five common antifungals (Amphotericin B, Anidulafungin, Flucytosine, Clotrimazole, and Itraconazole) were prepared in either DMSO or ddH2O according to the manufacturer’s instructions. The antifungal drugs were serially diluted in DMSO or ddH2O and added to wells containing 100 µL inoculum in sterile 96-well culture plates. In addition, serial dilutions of 2H were added in combination with the above antifungals. Wells without any compounds were used as growth controls. Incubation at 37 °C followed, and optical density measurements at 600 nm were taken after 24 h with wells containing only medium as blanks. The fractional inhibitory concentration index (FICI) was calculated to test the synergistic effect between each of these common antifungals with 2H according to the published protocols.
A checkerboard (or chequerboard) assay was carried out to assess the fractional inhibitory concentration index (FICI). The widely-used wild-type C. albicans strain SC5314 was used. […] More antifungals may need to be examined to find potential synergistic effects with 2H.
Figure 1 Synergy testing between 2H and several common antifungal drugs (A–E); Checkerboard analysis of antifungal activity for combination of 2H and several common antifungals. The heat-map plots of relative growth (calculated by setting the growth without compounds as 100%) were presented: (A) Amphotericin B; (B) Anidulafungin; (C) Flucytosine; (D) Clotrimazole; (E) Itraconazole. Color scale for relative growth is provided on the right. (F) The Fractional Inhibitory Concentration Index (FICI) for the combination of 2H and several common antifungals. The FICI is interpreted as follows: a synergistic effect when FICI ≤ 0.5; an additive or indifferent effect when FICI > 0.5 and <2; an antagonistic effect when FICI > 2. TEXT PRINTED IN THE PICTURE: (F) Amphotericin B: FICI: 1.077±0.060 | (F) Anidulafungin: FICI: 1.108±0.084 | (F) Clotrimazole: FICI: 0.741±0.092 | (F) Flucytosine: FICI: 1.261±0.075 | (F) Itraconazole: FICI: 0.862±0.013

In test [2] the test system is C. neoformans Type Strain H99. The test is described as follows: Antifungal susceptibility (growth) test, MIC90. The format is cell-based, Cryptococcus neoformans. As to conditions: H99, YNB medium, 37 °C, 48 h. The method, then: (§1) We followed the Clinical and Laboratory Standards Institute for yeasts (CLSI M27 [80]) and our previously published protocol for the determination of MIC and MFC [33]. The C. neoformans Type Strain H99 was obtained from the laboratory of Dr. Joseph Heitman (Duke University). After growing in Sabouraud medium, this strain was resuspended in 35% glycerol, aliquoted, flash-frozen in liquid nitrogen, and stored in a −80 °C freezer.
(§2) For each experiment, a 100 µL frozen aliquot of H99 was thawed and diluted into 5 mL Sabouraud medium. After being grown at 30 °C overnight, the culture was pelleted and washed twice using PBS at room temperature. The inoculum was prepared using the YNB medium, a yeast synthetic medium, with 5 × 10^3–1 × 10^4 colony forming units (CFU) (corresponding to an OD600 of 0.0005). Sterile 96-well culture plates were used for growth tests. After aliquoting 100 µL of the inoculum into each well, serial dilutions of 2H or fluconazole were added to the wells and mixed well by pipetting up and down. After shaking at 37 °C for 48 h, growth was measured by absorbance at 600 nm using a spectrophotometric plate reader. Wells with only medium were used as blanks and wells with only inoculum were used as growth controls. […]
(§3) Figure 3 2H inhibits the growth of Cryptococcus neoformans and is fungicidal. […] (B) The MIC90 and MFC of 2H were determined on C. neoformans strain H99. […]

Test [3] relates to C. albicans strain SC5314. Details: method as in PMID 37173314. The note with it: combination with 2H; previous test; cited from earlier work.
Test [4] has as its system C. neoformans Type Strain H99. The test is described as follows: Viability test, minimum fungicidal concentration (MFC). The format is cell-based, Cryptococcus neoformans. How it is done: as §1, §2, §3

For the compound `C[C@@H]1[C@H](O)[C@@H](C)/C=C/C=C/C=C/C=C/C=C/C=C/C=C/[C@H](O[C@@H]2O[C@H](C)[C@@H](O)[C@H](N)[C@@H]2O)C[C@@H]2O[C@](O)(C[C@@H](O)C[C@@H](O)[C@H](O)CC[C@@H](O)C[C@@H](O)CC(=O)O[C@H]1C)C[C@H](O)[C@H]2C(=O)O` [Amphotericin B], the “Fractional Inhibitory Concentration Index (FICI)” value in test [1] stood at 1.077±0.060.
Still for that read-out and setting: then `CCCCCOc1ccc(-c2ccc(-c3ccc(C(=O)N[C@H]4C[C@@H](O)[C@@H](O)NC(=O)[C@@H]5[C@@H](O)[C@@H](C)CN5C(=O)[C@H]([C@@H](C)O)NC(=O)[C@H]([C@H](O)[C@@H](O)c5ccc(O)cc5)NC(=O)[C@@H]5C[C@@H](O)CN5C(=O)[C@H]([C@@H](C)O)NC4=O)cc3)cc2)cc1` [Anidulafungin] ({pTerphenylCO(4''-OnC5H11)}-[Orn(4R-OH,5R-OH)]T[Hyp][hTyr(3S-OH,4S-OH)]T[Pro(3S-OH,4S-Me)]; lactam 1-C), with 1.108±0.084.
The same measure, in the same setting: under `Clc1ccccc1C(c1ccccc1)(c1ccccc1)n1ccnc1` [Clotrimazole] stands 0.741±0.092.
Take `OC(Cn1cncn1)(Cn1cncn1)c1ccc(F)cc1F` [Fluconazole]: the “MIC90 (minimum inhibitory concentration for 90% inhibition)” value in test [2] is 16 µM. Also, the “Synergistic effect between 2H and fluconazole” value in test [3] was “no apparent synergistic effect”. The Fungicidal or fungistatic entry in test [4] is given as “fungistatic”.
Take `Nc1[nH]c(=O)ncc1F` [Flucytosine]: the “Fractional Inhibitory Concentration Index (FICI)” value in test [1] is listed as 1.261±0.075.
On the same count and under the same terms, then `CCC(C)n1ncn(-c2ccc(N3CCN(c4ccc(OCC5COC(Cn6cncn6)(c6ccc(Cl)cc6Cl)O5)cc4)CC3)cc2)c1=O` (centres unmarked) [Itraconazole], with 0.862±0.013.
